Laboratory results: US10517839B2, “Mast cell inhibition in diseases of the retina and vitreous” (Cornell University, priority 2008, dated 2019)
“Also recorded” adds a separate entry of the source.

Tests used:
[1] = tested on: isolated perfused diabetic kidneys; test: Flow rate of isolated perfused diabetic kidneys after mast-cell degranulation with 48/80; details: diabetic rat kidney; for vasoconstriction response to 48/80 compared to untreated diabetic kidney (in words): BILA 2157 in perfusate
Experimental: Mast-cell degranulation was induced with agent 48/80, which will release renin, as the inventors have previously shown, as well as numerous other mediators synthesized and stored by mast cells.
Flow rate (ml/min) was measured under constant perfusion pressure, and is plotted against time (min).
After establishing a constant flow rate, mast-cell degranulation was induced by injecting the 48/80 degranulating agent (300 μg/ml) into the renal artery (at arrow). […] However, the magnitude of this vasoconstriction response was markedly different between the two kidneys. […] Moreover, the return to baseline flow rate was much faster in the BILA2157-treated diabetic kidney (˜8 min) compared to the untreated diabetic kidney (˜40 min). The rate of the initial flow recovery was also greater in the BILA-treated diabetic kidney (0.5 mls/min/min) compared to the untreated diabetic kidney (0.3 mls/min/min). […] In situ, the time it takes to return to normal flow after an acute increase in vascular resistance can profoundly influence the extent of ischemic damage in the kidney.

[2] = tested on: STZ-induced hyperglycemic Long-Evans rats; test: Evan's Blue dye leakage across the blood-retinal barrier; assay type: in vivo, rat; details: Na cromolyn 4% topical, 2 drops twice a day, day 15 post STZ, n=4 rats
Excerpt: In order to verify this finding, additional experiments were designed to measure leakiness across the blood-retinal barrier of STZ-induced hyperglycemic Long-Evans rats and to determine whether mast cell stabilization reduces vascular permeability in the hyperglycemic state. Blood glucose levels were monitored weekly to verify the hyperglycemic state. The three groups of animals were as follows: untreated hyperglycemic, cromolyn-treated hyperglycemic, and normo-glycemic (vehicle injected). The hyperglycemic group of rats was treated with the mast cell stabilizer (Na cromolyn, 4%) by topical administration to the eyes (2 drops twice a day), as described above.
Measurements of the Evan's Blue dye concentration across the blood-retinal barrier were performed on day 15 post±STZ-injection. […] 100 μl of the filtrate was then measured in a spectrophotometer at 620 nm, the dye's absorbance maximum. The dye's absorbance minimum, 740 nm, served as a reference wavelength. Dilutions (1:1000 in formamide) of the collected plasma were also measured spectrophotometrically at this time. Sample absorbance measurements were converted to concentrations using absorbance measurements from known concentrations of Evan's Blue in formamide. Dye leakage from blood to retina was calculated as: […]

VEGF = VEGF levels in retinas of STZ-injected diabetic rats; assay type: in vivo, rat; details: for effect on VEGF levels in retina (in words): STZ-induced diabetic rats, Na-Cromolyn 4% topical
Experimental: The STZ-induced diabetic rat model (Long Evans strain) (40 mg/kg body wt; 28 days) was used for these studies. To evaluate the effect of a mast cell stabilizer on VEGF levels, STZ-injected rats were treated with the mast cell stabilizer, Na-Cromolyn (4%), topically administered to the eyes (2 drops b.i.d.). VEGF levels were measured in the retinas of STZ-injected diabetic rats treated with Na-Cromolyn and these levels were compared to VEGF levels in the retinas of control rats and in the retinas of STZ-injected diabetic rats that received no Na-Cromolyn. Control rats received no streptozotocin (STZ) and no Na-Cromolyn.

[3] = tested on: STZ-induced diabetic rat model (Long Evans strain); test: Fluorescein angiography of retinal vascular permeability; assay type: in vivo; details: for leakage/pooling of fluorescein dye out of retinal vessels: 2 drops b.i.d.; for retinal vascular leakiness (fluorescein) over time: STZ Long-Evans rats, 14 and 28 days, n=3, FIG. 14
Experimental: To assess vascular leakage in these diabetic rats, fluorescein retinal angiography was performed weekly over a 2-month time course in the Long-Evans rats. In some experiments, rats were treated with the mast cell stabilizer, Na-cromolyn, topically administered to the eyes. The structure of Na-Cromolyn is shown below.
Angiography was performed on an upright fluorescence microscope using a long working distance lens. At the 2-month end point, rats were sacrificed and the eyes were enucleated, dissected free of cornea and extra-orbital connective tissue, and fixed in 4% paraformaldehyde.
The STZ-induced diabetic rat model (Long Evans strain) (40 mg/kg body wt; 28 days) was used for these studies. Fluorescein angiography was performed to assess the permeability of the retinal vasculature in these rats. The pigmented eyes of this strain facilitate angiography. Diabetic rats were treated with the mast cell stabilizer Na-cromolyn and the vascular permeability of these treated rats was compared to diabetic rats that were not treated with Na-cromolyn.
Weekly angiograms were also performed on control rats, STZ-injected, and STZ-injected rats treated with the mast cell stabilizer, Na cromolyn […], topically administered to the eyes (2 drops b.i.d.).
The STZ-induced diabetic rat model (Long Evans strain) (40 mg/kg body wt; 28 days) was used for fluorescein angiography experiments. The pigmented eyes of this strain facilitate angiography. To evaluate the role of mast cells, weekly angiograms were performed on control rats, STZ-injected, and STZ-injected rats treated with the mast cell stabilizer, Na cromolyn (4%), topically administered to the eyes (2 drops b.i.d.).

STZ-induced diabetic rat = test: Retinal whole mounts stained with FITC-griffonia lectin (tortuosity of retinal microvasculature); assay type: in vivo; details: cromolyn-treated diabetic rat, retinal whole mount
Experimental: To induce a model of type-I diabetes, Sprague Dawley and Long-Evans rats were injected with a single dose of streptozotocin (STZ) (60 mg/kg) and maintained for 2 months. Hyperglycemia was confirmed by monitoring blood from tail bleeds. To assess vascular leakage in these diabetic rats, fluorescein retinal angiography was performed weekly over a 2-month time course in the Long-Evans rats. In some experiments, rats were treated with the mast cell stabilizer, Na-cromolyn, topically administered to the eyes. […] This Example describes an analysis of the retinal vasculature from fixed eyes of control (A), diabetic (B), and cromolyn-treated diabetic (C) rats.

HMC-1 cells = test: Chemotaxis of HMC-1 cells in Corning transwells; assay type: cell-based, human; details: transwell, p<0.05
Experimental: Chemotaxis experiments were performed with cultured human mastocytoma cells. HMC-1 cells were plated in Corning transwells consisting of inner and outer wells. The number of mast cells migrating through the insert in response to exogenous histamine±thioperamide, an H3/H4 histamine receptor […], was counted.

renin = test: Renin activity (ANG I formed, RIA) of HMC-1 cells before and 48 hours after siRNA transfection; assay type: cell-based, human; details: siRNA 50 nM, 48 hours after transfection
Experimental: Renin-specific siRNA duplexes were made based on the coding sequence of human renin between exons 2-8 (Dharmacon) (accession number M26900). The four siRNA duplexes were made against the following renin sequences:
To assess the efficacy of this siRNA approach, the activity of renin protein was measured both before siRNA transfecting and at 48 hours after transfection of the HMC-1 cells.
HMC-1 cells were seeded in 6-well plates. Cells were transfected either with: renin siRNA duplexes (50 nM), scrambled siRNA duplex (50 nM), or treated with the transfection reagent (control), and maintained for 48 hours. An aliquot of cells from each well was counted to estimate the cell number before (initial) and 48 hours after transfection (post). The ability of the siRNA duplexes to silence renin mRNA in the transfected HMC-1 cells was determined by comparing the amount of ANG I formed in the releasate pre- and post-transfection by radioimmunoassay (RIA). […] The amount of ANG I generated on each sample is expressed as pg ANG I formed/ml/hr/10^5 cells. The effect of the siRNA on the amount of renin protein produced by the cell was determined by comparing the initial and final amounts of ANG I formed (renin activity) by the releasates.

Compound: CC(C)C[C@H](O)[C@H](O)[C@H](CC1CCCCC1)NC(=O)[C@@H](CC(=O)N(CC(=O)N(C)CCc1ccccn1)CC1CCCCC1)Cc1csc(N)n1 [BILA2157]
- rate of the initial flow recovery ([1]; 100 nM BILA 2157, after 48/80): 0.5 mls/min/min
- return to baseline flow rate ([1]; 100 nM BILA 2157, after 48/80): ~8 min
- flow rate after 48/80 injection (from baseline 20 ml/min) ([1]; 100 nM BILA 2157 in perfusate, constant perfusion pressure, 48/80 300 μg/ml into renal artery): 12 mL/min
- effect on flow rate in the absence of a degranulating agent ([1]; 100 nM in perfusate): no effect on flow rate
- vasoconstriction response to 48/80 compared to untreated diabetic kidney (in words) [1]: much less vasoconstriction
- vasoconstriction response to 48/80 compared to untreated diabetic kidney (in words) ([1]; listed as BILA 2157): offsets the rate reducing effects

Compound: O=C([O-])c1cc(=O)c2c(OCC(O)COc3cccc4oc(C(=O)[O-])cc(=O)c34)cccc2o1.[Na+].[Na+] [Na-cromolyn, Na-Cromolyn]
- Evan's Blue dye leakage across the blood-retinal barrier [2]: prevented dye leakage into the retinal space; also recorded: protects against the early phase of increased vascular permeability
- Evan's Blue dye leakage across the blood-retinal barrier ([2]; listed as cromolyn Na): protective effect against increased vascular permeability
- effect on VEGF levels in retina (in words) (VEGF): reduces vascular endothelial growth factor (VEGF) levels
- effect on VEGF levels in retina (in words) (VEGF; listed as Cromolyn Na): decreases vascular endothelial growth factor (VEGF) levels
- VEGF level in retina (VEGF; STZ-injected hyperglycemic rats, Na-Cromolyn 4% topical 2 drops b.i.d., 1 month, n=2): about 65 pg VEGF/ml/mg retina
- leakage/pooling of fluorescein dye out of retinal vessels ([3]; Na cromolyn 2% topical, day 28, FIG. 15): prevented dye pooling
- leakage/pooling of fluorescein dye out of retinal vessels ([3]; Na cromolyn 4% topical, weekly angiograms): prevented dye pooling
- retinal vascular leakiness (fluorescein) over time [3]: greatly diminished
- retinal vascular leakiness (fluorescein) over time ([3]; listed as cromolyn): reduces the leakage of fluorescein from retinal vessels
- tortuosity / abnormal vessel morphology of retinal microvasculature (STZ-induced diabetic rat): abnormal changes in the vessel morphology were not observed

Compound: NCCc1c[nH]cn1 [histamine]
- number of mast cells migrating through the insert in response to exogenous histamine (HMC-1 cells; vs control): significantly more migration

Compound: S=C(NC1CCCCC1)N1CCC(c2cnc[nH]2)CC1 [thioperamide]
- migration with histamine alone compared to thioperamide alone or histamine in the presence of thioperamide (HMC-1 cells): significantly more migration

Compound: scrambled control siRNA: negative control, non-specific scrambled siRNA duplex, SEQ ID NO: 9 and 10 (chain 1 AUGUAUUGGCCUGUAUUAGUU; chain 2 CUAAUACAGGCCAAUACAUUU; listed as RNA, chemistry not given here)
- change in renin activity / amount of ANG I formed after transfection (in words) (renin): no significant decrease
